Assay results reported in US8017828B2, “Utilization of rare sugars in plant or microorganism” (Shikoku Research Institute Incorporated, priority 2004, dated 2011).

What was measured:
[1] = test system: cherry tomato plant “mini carol”; test: Hydroponic growth of cherry tomato with 0.05 or 0.5 mM sugar, 10 days; format: in vivo; conditions: 0.5 mM
Method: Subsequently, a cherry tomato plant “mini carol” was transplanted for permanent planting to a hydroponic apparatus, and a total of 7 treated plots in which a plot without addition (control plot) was added to 6 treated plots with the use of a nutrient solution supplemented with 0.05 mM or 0.5 mM D-psicose, D-fructose or mannitol were prepared. A survey was carried out with regard to the growth at 10 days after the permanent planting. […] The stem diameter was the smallest in the case of 0.5 mM D-psicose. The number of leaves was the smallest in the case of 0.5 mM D-psicose and 0.5 mM mannitol. The root length was the smallest in the case of 0.5 mM psicose.

[2] = test system: Brassica rapa var. amplexicaulis (variety: “Haru Ichiban”); test: Foliar spraying of sugar on Brassica rapa var. amplexicaulis; format: in vivo; conditions: 0.5% solution sprayed
Excerpt: Brassica rapa var. amplexicaulis is a vegetable in the Brassica family, and flower buds are harvested and used. As the same species of vegetables, broccoli, cauliflower and the like are exemplified, which are important horticultural crops. As for such a vegetable, development of flower buds has a large effect on the crop yield. Therefore, during the house cultivation of Brassica rapa var. amplexicaulis (variety: “Haru Ichiban”), foliar spraying of a sugar solution at a concentration of 0.5% (w/v) was carried out and effects on the growth and the development of flower buds were examined. The seeds of Brassica rapa var. amplexicaulis were sown in a 128-cell tray on Oct. 23, 2003 and raised for about 20 days. Then, the raised seedlings were transplanted for permanent planting with a planting distance of 40 cm on two rows with an inter row space of 50 cm in separate beds filled with soil for cultivation “Hana to Yasai no Tsuchi (garden soil for flowers and vegetables)” (Kurokawa Shubyo En) on Nov. 12, 2003. The cultivation was carried out by a simple fertigation system, and irrigation was carried out for 1 hour on a daily basis with a 2,000-fold dilution of Hyponex through an irrigation tube. The cultivation was carried out in a vinyl house without heating with side windows open. From Dec. 18, 2003, water or a 0.5% (w/v) sugar solution was sprayed onto the whole plant on a three times weekly basis. As for the types of sugars, D-glucose, D-fructose and D-psicose were used and five plants were cultivated for each test plot. On Feb. 23, 2004, three plants of medium size were harvested and a survey was carried out. The survey items were plant length, stem diameter, number of lateral buds, terminal bud weight, total weight of lateral buds and the like.

Salsola komarovii = test: Seed germination, short-time and continuous treatment (Experiment 2); format: in vivo; conditions: immersed in 1% solution for 24 hours, in the end; DW 28%
Method: In order to clarify an effect of a short-time treatment, 50 seeds of Salsola komarovii, tomato (Home Momotaro) and sunny lettuce (Red Wave), and 20 seeds of morning glory (Tairin Zaki Kongo) were immersed in any of deionized water, 1% D-psicose, 1% D-allose and 1% L-galactose for 24 hours (25° C., dark), respectively, then, they were lightly washed with deionized water. Then, the seeds were sown in a dish with a diameter of 9 cm having a filter paper placed therein, and germinated under the same condition by poring 5 to 10 ml of deionized water therein. Further, for the comparison, a continuous treatment with 1% D-psicose was carried out in accordance with the same procedure.

[3] = test system: Pythium ultimum IFO 32426 strain; test: Oospore formation of Pythium ultimum in sugar solution; format: cell-based; conditions: 0.05% (w/v) sugar solution, 23° C., 4 days
Method: With regard to Pythium ultimum that causes damping-off of spinach and the like, an effect of a rare sugar on oospore formation was examined.
First, as the Pythium ultimum, IFO 32426 strain was used, and static culture thereof was carried out with 200 ml of V8 medium at 23° C. for 1 week. The resulting mycelial mat was well washed with sterile water and divided into 16 equal parts with forceps. This mycerial body was disentangled uniformly to form a small piece and immersed in 20 ml of a sugar solution at a concentration of 0.05% (w/v) and let stand at 23° C. for 4 days. […] Further, the same experiment was carried out using Pythium zingiberum IFO 30817 strain.

[4] = test system: Aspergillus niger, Cladosporium cladosporioides and Penicillium chrysogenum; test: Mycelial elongation of filamentous fungi on agar with rare sugar; format: cell-based; conditions: 0.05% (w/v) in agar medium, 25° C., 4 days
Method: By using as targets, Aspergillus niger, Cladosporium cladosporioides and Penicillium chrysogenum, which are typical filamentous fungi and generally seen in a living environment, an effect of a rare sugar on mycelial elongation was examined.
As the test fungal strains, NBRC 4066 strain, NBRC 4459 strain and NBRC 4626 strain were used.
Each test fungal strain was cultured on a potato dextrose agar medium at 25° C. for 7 days, and one in which the mycelium extended over the surface of the dish was pushed out along with the agar medium in such a manner that the agar medium was in a disc form with a diameter of 1.1 cm, which was placed at the center of a dish filled with an agar medium (1% Bacto agar) supplemented with any of a variety of rare sugars (allitol, D-altrose, L-mannose, L-galactose, D-tagatose, D-sorbose, D-psicose, D-allose, D-glucose and D-fructose) at 0.05% (w/v) and cultured at 25° C. for 4 days. After the cultivation, the length of the mycelium extending on the surface of the culture medium was measured. Two culture media were prepared for each test plot, and the mycelial length represents the average thereof.

[5] = test system: Fusarium oxysporum, Glomerella cingulata, Verticillium dahliae and Botrytlis cinerea; test: Mycelial elongation of plant pathogenic bacteria on agar with rare sugar; format: cell-based; conditions: 0.05% (w/v) in agar medium, 23° C., 7 days
Method: By using as targets, Fusarium oxysporum, Glomerella cingulata, Verticillium dahliae and Botrytlis cinerea, which are typical plant pathogenic bacteria, an effect of a rare sugar on mycelial elongation was examined.
As the test bacterial strains, IFO 31213 strain, IFO 6425 strain, IFO 9765 strain and IFO 9760 strain were used.
After the cultivation, the length of the extending mycelium was measured.

[6] = test system: Arabidopsis thaliana Lan dsberg erecta (LER); test: Germination of Arabidopsis thaliana with 8 ketoses; format: in vivo; conditions: 100 mM aqueous solution
Method: An effect of 8 types of ketoses on germination of Arabidopsis thaliana LER series which was an experimental plant was examined.
Two sheets of filter paper were placed in a dish with a diameter of 3.5 cm, and 30 seeds of Arabidopsis thaliana Lan dsberg erecta (LER) were sown per dish, and 0.5 mL of a treatment liquid was poured therein. Then, the dishes were placed in an environment control chamber under the condition of a constant temperature of 25° C. and 24-hour day length (fluorescent lamp, 70 μmol/m^2/s). After the sowing, a survey was carried out with regard to the number of seeds that germinated at 24-hour interval. As the treatment liquid, 100 mM, 10 mM and 1 mM aqueous solutions of any of D-fructose, D-psicose, D-tagatose, D-sorbose, L-fructose, L-psicose, L-tagatose and L-sorbose, and distilled water were used. The procedure was repeated three times for the respective treatment liquids.

chitinase gene = test: Northern blotting of chitinase gene expression in sprayed cut leaves of rough lemon; format: in vivo; conditions: 0.5 mM sprayed on cut leaves, 2 to 48 hours
Method: Cut leaves of rough lemon were treated by spraying each of 0.5 mM L-psicose, L- & D-tagatose and D-sorbose thereon and were let stand for 2, 4, 6, 12, 24 and 48 hours at 24° C. under the dark condition in a moist chamber. Then, from the treated leaves, total RNA was extracted and the expression of genes of lipoxygenase and chitinase was analyzed by Northern blotting. The assays and analyses were repeated at least 3 times in all the treated plots, and equivalent results were obtained.

[7] = test system: Fusarium oxysporum (IFO 31213 strain); format: in vivo, tomato plant (variety: “House Momotaro”)
Method: By using a tomato plant and a strain of Fusarium oxysporum, which is a typical pathogenic bacterium of tomato, an effect of D-psicose during infection in a stage of raising seedlings thereof was examined.
To be more specific, seeds of a tomato plant (variety: “House Momotaro”) were subjected to an immersion treatment by immersing them in a 0.01% (w/v) D-psicose solution or a 0.007% (w/v) probenazole solution for 15 minutes while stirring slowly, followed by air-drying on sterile gauze, and then used as treated seeds. In the medium culture for raising seedlings (pete:pearlite:vermiculite=2:1:1), 0.01% (w/v) D-psicose or 0.007% (w/v) probenazole was mixed, and the soil was placed in black polypot plant containers with a diameter of 9 cm, and then, 4 seeds of the above treated seeds were sown in each pot. The seeds (20 seeds in total) were sown in 5 pots for each test plot. After sowing, the pots were placed in a growth chamber at 23° C. and 5,000 Lux (12-hour day length), and raising of seedlings was initiated. At 1 month and 2 months after the initiation of raising of seedlings, a suspension of mycelium of Fusarium oxysporum (IFO 31213 strain) was inoculated around the roots, whereby infection with Fusarium oxysporum was caused. After the inoculation of Fusarium oxysporum, the temperature was raised to 30° C., and cultivation was continued. At about 4 months after sowing, a survey was carried out with regard to the survival rate of plants, the conditions of browning of vascular bundles and roots, the stem diameter and the like.

## OC[C@@H](O)[C@@H](O)[C@H](O)[C@H](O)CO [mannitol, reference compound]
[1]
  number of leaves, rank among 7 treated plots: the smallest

## O=C[C@@H](O)[C@H](O)[C@H](O)[C@@H](O)CO [L-galactose]
[2]; control (water) 3.0
  Terminal bud weight: 9.6 g
[2]; control (water) 22.8
  Stem diameter: 21.7 mm
[2]; control (water) 32.3
  Number of lateral buds: 48.3
[2]; control (water) 49.3
  Plant length: 52.7 cm
[2]; control (water) 235.3
  Total weight of lateral buds: 250.6 g
Salsola komarovii
  germination rate: 34%
[3]
  oospore formation: inhibited
[4]
  effect on mycelial elongation: have an effect of inhibiting mycelial elongation

## O=C[C@@H](O)[C@H](O)[C@H](O)[C@H](O)CO [D-altrose]
[5]
  inhibitory effect on mycelial elongation: the highest inhibitory effect
[4]
  effect on mycelial elongation: have an effect of inhibiting mycelial elongation

## O=C(CO)[C@@H](O)[C@@H](O)[C@@H](O)CO [L-psicose]
[6]
  inhibition of germination: not clearly observed

## O=C(CO)[C@@H](O)[C@@H](O)[C@H](O)CO [D-tagatose]
Chitinase gene
  induction of the expression of chitinase gene: more strongly than D-psicose

## C=CCOC1=NS(=O)(=O)c2ccccc21 [probenazole, reference compound]
[7]; seed immersion (0.01% D-psicose or 0.007% probenazole), no seed treatment 25%
  Vascular bundle browning ratio: 5%
[7]; seed immersion treatment
  Stem diameter: increased
